Test results from patent US8536307B2, “Anticalins” (Pieris AG, priority 1997, dated 2013).

Key:
[1] = target: anticalin FluB, mutein of Pieris brassicae bilin-binding protein (Bbp): Asn34Gln, Ser35His, Val36Trp, Glu37Asp, Asn58Arg, His60Arg, Ile69His, Glu70Lys, Leu88Val (Pieris brassicae, UniProt P09464, E52D/E85K/F142H/H75R/I84H/K102S/K110R/K131R/K150M/L103V/N112G/N16D/N36Q/N49Q/N73R/Q140W/S50H/V108R/V51W/Y105R/Y129R); details: fluorescence titration, excitation 280 nm, emission 340 nm, 1 μM anticalin, PBS with 1 mM EDTA, pH 7.4, 25° C.
Chain of UniProt P09464 (P09464 other isoform, or with tags, fused parts or gaps with the stated changes): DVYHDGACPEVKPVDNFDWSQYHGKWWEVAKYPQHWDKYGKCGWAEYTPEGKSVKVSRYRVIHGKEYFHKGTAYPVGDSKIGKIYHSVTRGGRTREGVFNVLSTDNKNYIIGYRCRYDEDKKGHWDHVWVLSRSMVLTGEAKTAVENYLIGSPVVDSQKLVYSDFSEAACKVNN

[2] = target: T1, anticalin FluA, mutein of Pieris brassicae bilin-binding protein (Bbp): Asn34Ser, Ser35Pro, Val36Asn, Glu37Gly, Asn58Arg, His60Asp, Ile69Met, Leu88Arg, Tyr90Val (Pieris brassicae, UniProt P09464, E111K/E52G/F142H/H75D/I84M/K102S/K110R/K131R/K150M/L103R/N112T/N16D/N36Q/N49S/N73R/Q140W/S50P/V108Y/V51N/Y105V/Y129S); details: fluorescence titration, excitation 280 nm, emission 340 nm, 1 μM anticalin, PBS with 1 mM EDTA, pH 7.4, 25° C.
T1 sequence (P09464 other isoform, or with tags, fused parts or gaps with the stated changes): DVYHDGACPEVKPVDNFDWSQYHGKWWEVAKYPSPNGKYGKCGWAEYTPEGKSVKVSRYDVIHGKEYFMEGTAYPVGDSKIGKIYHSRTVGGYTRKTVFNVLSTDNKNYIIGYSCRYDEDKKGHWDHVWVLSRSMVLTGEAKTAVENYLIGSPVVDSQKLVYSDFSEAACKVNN

[3] = target: T1, anticalin FluA, mutein of Pieris brassicae bilin-binding protein (Bbp): Asn34Ser, Ser35Pro, Val36Asn, Glu37Gly, Asn58Arg, His60Asp, Ile69Met, Leu88Arg, Tyr90Val; details: fluorescein 1 μM, excitation 490 nm, emission 512 nm, PBS with 1 mM EDTA, pH 7.4, 25° C.
[4] = target: recombinant Pieris brassicae bilin-binding protein (Bbp), parent (Pieris brassicae, UniProt P09464, K102S/K150M/N16D/N36Q); details: control experiment corresponding to that with FluA, excitation 490 nm, emission 512 nm
Chain of recombinant Pieris brassicae bilin-binding protein (Bbp), parent (P09464 other isoform, or with tags, fused parts or gaps K102S/K150M/N16D/N36Q): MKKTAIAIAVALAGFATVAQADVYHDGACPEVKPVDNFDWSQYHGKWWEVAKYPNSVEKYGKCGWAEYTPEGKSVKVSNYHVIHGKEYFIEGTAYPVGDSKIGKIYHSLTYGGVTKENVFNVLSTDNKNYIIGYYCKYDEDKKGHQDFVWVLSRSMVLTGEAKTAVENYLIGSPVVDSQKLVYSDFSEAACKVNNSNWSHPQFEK

| SMILES | Dissociation constant (Kd) [1] [nM] | Dissociation constant (Kd) [2] [nM] | Quenching of the fluorescence intensity of fluorescein in the complex [3] [%] | Quenching of the fluorescence of fluorescein [4] |
| --- | --- | --- | --- | --- |
| O=C(O)CCCC(=O)Nc1ccc2c(c1)C(=O)OC21c2ccc(O)cc2Oc2cc(O)ccc21 [4-Glutarylamidofluorescein, 4-glutarylamido-fluorescein] | 4700 ± 510 | 601 ± 16 |  |  |
| Nc1ccc2c(c1)C(=O)OC21c2ccc(O)cc2Oc2cc(O)ccc21 [4-Aminofluorescein, 4-amino-fluorescein] | 2840 ± 300 | 224 ± 6 |  |  |
| O=C1OC2(c3ccc(O)cc3Oc3cc(O)ccc32)c2ccccc21 [Fluorescein, fluorescein] | 5730 ± 860 | 118 ± 14 | 99.7±0.3 | no comparable fluorescence quenching was found |
